{"source": "paper PMC3286601", "about": "(Biochemistry, 2012)", "key": {"[1]": {"target": "T1, wild-type Pseudomonas sp. strain CBS3 4-HB-CoA thioesterase (Pseudomonas sp., UniProt P56653)", "T1 sequence (P56653 1-141)": "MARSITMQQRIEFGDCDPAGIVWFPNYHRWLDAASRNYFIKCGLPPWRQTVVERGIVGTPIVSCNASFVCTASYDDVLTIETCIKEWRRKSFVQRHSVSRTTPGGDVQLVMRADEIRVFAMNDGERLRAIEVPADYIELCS", "test": "Ligand binding to wild-type thioesterase by stopped-flow fluorescence quenching", "conditions": "for kobs (apparent pseudo-first order binding rate constant): 0.54 µM thioesterase; for koff: read-out: koff (dissociation rate constant); for kon: read-out: kon (association rate constant)"}, "[2]": {"target": "T1, wild-type Pseudomonas sp. strain CBS3 4-HB-CoA thioesterase", "test": "Steady-state product inhibition of thioesterase-catalyzed hydrolysis of 4-HB-CoA", "type": "biochemical"}, "[3]": {"target": "T1, wild-type Pseudomonas sp. strain CBS3 4-HB-CoA thioesterase", "test": "Steady-state kinetic constants", "type": "biochemical", "conditions": "substrate hydrolysis, pH 7.5, 25 °C"}, "[4]": {"target": "T1, wild-type Pseudomonas sp. strain CBS3 4-HB-CoA thioesterase", "test": "kcat pH rate profiles in H2O and D2O, solvent kinetic isotope effect on kcat", "type": "biochemical", "conditions": "for C1 (pH independent kcat plateau) / C2 (pH independent kcat plateau) / first break in kcat pH profile / second break in kcat pH profile: fit to equation 4"}, "D17N thioesterase": {"target": "D17N thioesterase", "conditions": "inert D17N thioesterase complex, steady-state fluorescence quenching; ref [5]; cited from earlier work"}, "[5]": {"target": "T1, wild-type Pseudomonas sp. strain CBS3 4-HB-CoA thioesterase", "type": "biochemical"}, "[6]": {"target": "T1, wild-type Pseudomonas sp. strain CBS3 4-HB-CoA thioesterase", "type": "biochemical", "remark": "listed apart in the source"}, "[7]": {"target": "T1, wild-type Pseudomonas sp. strain CBS3 4-HB-CoA thioesterase", "test": "Steady-state multiple-turnover time courses", "type": "biochemical"}, "[8]": {"conditions": "conjugate acid of the CoA thiolate anion leaving group; source not stated; cited from earlier work"}}, "note": "Read-outs that look alike come from different tables or passages of the source.", "data": [{"smiles": "CC(C)(COP(=O)(O)OP(=O)(O)OC[C@H]1O[C@@H](n2cnc3c(N)ncnc32)[C@H](O)[C@@H]1OP(=O)(O)O)[C@@H](O)C(=O)NCCC(=O)NCCSCC(=O)c1ccc(O)cc1", "note": "[4-HP-CoA, 4-hydroxyphenacyl-CoA]", "values": [{"measurement": "Kd", "setting": "[1]", "result": 0.33, "unit": "µM"}, {"measurement": "kobs (apparent pseudo-first order binding rate constant)", "setting": "[1]; 5.3 µM 4-HP-CoA, 50 mM K+HEPES pH 7.5, 25 °C", "result": "350 ± 4", "unit": "s⁻¹"}, {"measurement": "koff", "setting": "[1]", "result": "20 ± 5", "unit": "s⁻¹"}, {"measurement": "kon", "setting": "[1]", "result": "5.9e+07 ± 1e+06", "unit": "M⁻¹ s⁻¹"}]}, {"smiles": "O=C(O)c1ccc(O)cc1", "note": "[4-HB, 4-hydroxybenzoate]", "values": [{"measurement": "Ki", "setting": "[2]", "result": "1200 ± 200", "unit": "µM"}]}, {"smiles": "CC(C)(COP(=O)(O)OP(=O)(O)OC[C@H]1O[C@@H](n2cnc3c(N)ncnc32)[C@H](O)[C@@H]1OP(=O)(O)O)[C@@H](O)C(=O)NCCC(=O)NCCSC(=O)c1ccc(O)cc1", "note": "[4-HB-CoA, 4-hydroxybenzoyl-CoA]", "values": [{"measurement": "steady-state kcat", "setting": "[3]", "result": 18, "unit": "s⁻¹"}, {"measurement": "pH independent isotope effect from ratio of C1 values", "setting": "[4]; H2O/D2O", "result": 3.8}, {"measurement": "pH independent isotope effect from ratio of C2 values", "setting": "[4]; H2O/D2O", "result": 3.7}, {"measurement": "C1 (pH independent kcat plateau)", "setting": "[4]; buffered D2O", "result": "1.3 ± 0.2"}, {"measurement": "C2 (pH independent kcat plateau)", "setting": "[4]; buffered D2O", "result": "15 ± 1"}, {"measurement": "first break in kcat pH profile", "setting": "[4]; buffered D2O", "result": "5.1 ± 0.1"}, {"measurement": "second break in kcat pH profile", "setting": "[4]; buffered D2O", "result": "8.0 ± 0.1"}, {"measurement": "C1 (pH independent kcat plateau)", "setting": "[4]; buffered H2O", "result": "5.0 ± 0.1"}, {"measurement": "C2 (pH independent kcat plateau)", "setting": "[4]; buffered H2O", "result": "55 ± 4"}, {"measurement": "first break in kcat pH profile", "setting": "[4]; buffered H2O", "result": "5.15 ± 0.09"}, {"measurement": "second break in kcat pH profile", "setting": "[4]; buffered H2O", "result": "7.70 ± 0.08"}, {"measurement": "D2O solvent kinetic isotope effect (SKIE) on kcat", "setting": "[4]; pH independent", "result": "3.7–3.8"}, {"measurement": "Kd", "setting": "[1]", "result": 0.2, "unit": "µM"}, {"measurement": "kobs (apparent pseudo-first order binding rate constant)", "setting": "[1]; 5.0 µM 4-HB-CoA (b38 prints 4.0 µM), pH 7.5, 25 °C", "result": "280 ± 30", "unit": "s⁻¹"}, {"measurement": "koff", "setting": "[1]", "result": "13 ± 5", "unit": "s⁻¹"}, {"measurement": "kon", "setting": "[1]", "result": "6.5e+07 ± 2e+06", "unit": "M⁻¹ s⁻¹"}, {"measurement": "substrate-binding rate k1", "setting": "[1]; summary value in Conclusions", "result": "~ 70 µM^−1s^−1"}, {"measurement": "Kd", "setting": "D17N thioesterase", "result": 0.14, "unit": "µM"}]}, {"smiles": "CC(C)(COP(=O)(O)OP(=O)(O)OC[C@H]1O[C@@H](n2cnc3c(N)ncnc32)[C@H](O)[C@@H]1OP(=O)(O)O)[C@@H](O)C(=O)NCCC(=O)NCCS", "note": "[CoA, coenzyme A]", "values": [{"measurement": "Ki", "setting": "[2]", "result": "250 ± 70", "unit": "µM"}, {"measurement": "Kii (intercept inhibition constant)", "setting": "[2]; noncompetitive inhibition of 4-HB-CoA hydrolysis, pH 7.5, 25 °C", "result": "900 ± 300", "unit": "µM"}, {"measurement": "Kd", "setting": "[5]", "result": 300, "unit": "µM"}, {"measurement": "Kd", "setting": "[6]", "result": 300, "unit": "µM"}, {"measurement": "Kd", "setting": "[7]", "result": 300, "unit": "µM"}, {"measurement": "pKa of the conjugate acid", "setting": "[8]", "result": 9.7}]}]}
